Laboratory results taken from patent publication US11279733B2, “Peptide antibiotics” (priority 2017, dated 2022).
Values after ≈ are worked out from the molar mass of the structure shown. Positions of bridges follow the written chain, without caps; N, C: chain ends. Non-standard residues stand in square brackets, D forms with d. Residues, ends and D or L forms follow the SMILES beside them. *: point of attachment. Decanoyl(3R-OH) = CCCCCCC[C@@H](O)CC(=O)*; Igl = N[C@H](C(=O)O)C1Cc2ccccc2C1; dDab = NCC[C@@H](N)C(=O)O; dDap = NC[C@@H](N)C(=O)O; Dab = NCC[C@H](N)C(=O)O

Legend:
[1] = test system: P. aeruginosa ATCC 27853; conditions: ATCC 27853
In short: (§1)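 Mid-log cultures grown in Mueller Hinton broth at 37° C were tested by 2-fold broth microdilution at 5×10^5 CFU/mL final. Compounds were dissolved in water and tested over a final range of 32 to 0.015 μg/mL.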

[2] = test system: K. pneumoniae GN_106, PmxR; conditions: GN 106, PmxR
In short: as §1

[3] = test system: K. pneumoniae ATCC 700603, MDR; conditions: ATCC 700603
In short: as §1

[4] = test system: E. coli ATCC 25922; conditions: ATCC 25922
In short: as §1

[5] = test system: P. aeruginosa GN_105, PmxR; conditions: GN 105, PmxR
In short: as §1

[6] = test system: K. pneumoniae ATCC 13883; conditions: ATCC 13883
In short: as §1

[7] = test system: K. pneumoniae GN_102 PmxR; conditions: GN 102 PmxR
In short: as §1

[8] = test system: A. baumannii ATCC 19606; conditions: ATCC 19606
In short: as §1

[9] = test system: S. aureus ATCC 25923, MSSA; conditions: ATCC 25923
In short: as §1

[10] = test system: K. pneumoniae ATCC BAA-2146, NDM-1 pos; conditions: ATCC BAA-2146
In short: as §1

[11] = test system: P. aeruginosa GN_043, PmxR; conditions: polymyxin-resistant
In short: as §1

[12] = test system: A. baumannii GN_093 PmxR; conditions: GN 093 PmxR
In short: as §1

[13] = test system: Neisseria gonorrhoeae; test: MIC determination, Neisseria gonorrhoeae; assay type: cell-based; conditions: for MIC N. gonorrhoeae FA19 ATCC BAA-1838: strain FA19 ATCC BAA-1838
Experimental: Bacteria were either obtained from American Type Culture Collection (ATCC; Manassas, Va., USA) or independent academic clinical isolate collections, as listed in Table 18 below. Bacteria were cultured in Nutrient broth (NB; Bacto Laboratories, catalogue No. 234000) or Mueller Hinton broth (MHB; Bacto Laboratories, catalogue No. 211443) at 37° C. overnight with shaking (˜180 RPM). A sample of each culture was then diluted 50-fold in fresh MHB and incubated at 37° C. for 2-3 h with shaking (˜180 RPM). Compound stock solutions were prepared as 0.64 mg/mL or 2.56 mg/mL in water. The compounds, at twice the final desired concentration, were serially diluted 2-fold across the wells of 96-well plates (Polystyrene, Corning, catalogue No. 3370). Mid-log phase bacterial cultures (after 2-3 h incubation) were diluted to a final concentration of 1×10^6 colony forming units (CFU)/mL, and 50 μL was added to each well giving a final cell density of 5×10^5 and a compound concentration range of 32 μg/mL to 0.015 μg/mL (128-0.06 μg/mL against P. aeruginosa PA9704).

[14] = in vitro; conditions: human
In short: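 4000 cells/well, 24 h attach (37 °C, 5% CO2); compound 24 h; 5 μM resazurin 2 h, 37 °C; fluorescence ex/em 560/590. CC50 by curve fit.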

## CCCCCCC[C@@H](O)CC(=O)N[C@H](CCN)C(=O)N[C@H]1CCNC(=O)[C@H](Cc2c[nH]c3ccccc23)NC(=O)[C@H](CCN)NC(=O)[C@H](CCN)NC(=O)[C@H](C2Cc3ccccc3C2)NC(=O)[C@@H](Cc2ccccc2)NC(=O)[C@H](CCN)NC1=O [compound 8103, 3(R)OH-nC9CO-D-Dab-cyc[L-Dab-L-Dab-L-Dab-D-Phe-L-indanylgly-L-Dab-L-Dab-L-Trp]] ({Decanoyl(3R-OH)}-[dDab][Dab][Dab][dF][Igl][Dab][Dab]W; lactam 2-C)
[1]
  MIC P. aeruginosa ATCC 27853: 4 µg/mL (≈ 3.4 µM)
[2]
  MIC K. pneumoniae GN_106, PmxR: 4 µg/mL (≈ 3.4 µM)
[3]
  MIC K. pneumoniae ATCC 700603, MDR: 2 µg/mL (≈ 1.7 µM)
[4]
  MIC E. coli ATCC 25922: 2 µg/mL (≈ 1.7 µM)
[5]
  MIC P. aeruginosa GN_105, PmxR: 2 µg/mL (≈ 1.7 µM)
[6]
  MIC K. pneumoniae ATCC 13883: 4 µg/mL (≈ 3.4 µM)
[7]
  MIC K. pneumoniae GN_102 PmxR: 4 µg/mL (≈ 3.4 µM)
[8]
  MIC A. baumannii ATCC 19606: 4 µg/mL (≈ 3.4 µM)
[9]
  MIC S. aureus ATCC 25923, MSSA: 2 µg/mL (≈ 1.7 µM)
[10]
  MIC K. pneumoniae ATCC BAA-2146, NDM-1 pos: 4 µg/mL (≈ 3.4 µM)
[11]
  MIC P. aeruginosa GN_043, PmxR: 2 µg/mL (≈ 1.7 µM)
[12]
  MIC A. baumannii GN_093 PmxR: 4 µg/mL (≈ 3.4 µM)
[13]
  MIC N. gonorrhoeae FA19 ATCC BAA-1838: 0.2 µg/mL (≈ 0.17 µM)

## CCCCCCC[C@@H](O)CC(=O)N[C@H](CN)C(=O)N[C@H]1CCNC(=O)[C@H](CC(C)C)NC(=O)[C@H](CCN)NC(=O)[C@H](CO)NC(=O)[C@H](CC(C)C)NC(=O)[C@@H](Cc2ccccc2)NC(=O)[C@H](CCN)NC1=O [compound 9193, 3(R)-OH-nC9CO-D-Dab-cyc[L-Dab-L-Dab-L-Leu-D-Phe-L-Dab-L-Dab-L-Leu]] ({Decanoyl(3R-OH)}-[dDap][Dab][Dab][dF]LS[Dab]L; lactam 2-C)
[14]
  CC50 at 24 h: > 300 µM
[1]
  MIC, P. aeruginosa ATCC 27853: 32 µg/mL (≈ 31.5 µM)
[2]
  MIC, K. pneumoniae Cl 138-16347-20362, PmxR: >32 µg/mL
[3]
  MIC, K. pneumoniae ATCC 700603, MDR: >32 µg/mL
[4]
  MIC, E. coli ATCC 25922: >32 µg/mL
[5]
  MIC, P. aeruginosa PA9704, PmxR: >32 µg/mL
[6]
  MIC, K. pneumoniae ATCC 13883: >32 µg/mL
[7]
  MIC, K. pneumoniae Cl Koprana 10065 0661:1, PmxR: >32 µg/mL
[8]
  MIC, A. baumannii ATCC 19606: 32 µg/mL (≈ 31.5 µM)
[9]
  MIC, S. Aureus ATCC 25923, MSSA: >32 µg/mL
[10]
  MIC, K. pneumoniae ATCC BAA-2146, NDM-1 pos: >32 µg/mL
[11]; Table 5
  MIC, P. aeruginosa FADDI-PA070, PmxR: >32 µg/mL
[12]
  MIC, A. baumannii Cl Ptyela 10073 4512:2, PmxR: >32 µg/mL
[13]
  MIC N. gonorrhoeae FA19 ATCC BAA-1838: 25 µg/mL (≈ 24.6 µM)

## CCCCCCC[C@@H](O)CC(=O)N[C@H](CN)C(=O)N[C@H]1CCNC(=O)[C@H](Cc2c[nH]c3ccccc23)NC(=O)[C@H](CCN)NC(=O)[C@H](CCN)NC(=O)[C@H](CC(C)C)NC(=O)[C@@H](Cc2ccccc2)NC(=O)[C@H](CCN)NC1=O [compound 8886, 3(R)OH-nC9CO-D-Dap-cyc[L-Dab-L-Dab-D-Phe-L-Leu-L-Dab-L-Dab-L-Trp]] ({Decanoyl(3R-OH)}-[dDap][Dab][Dab][dF]L[Dab][Dab]W; lactam 2-C)
[14]
  CC50 at 24 h: 95 µM
[1]
  MIC P. aeruginosa ATCC 27853: 2 µg/mL (≈ 1.81 µM)
[2]
  MIC K. pneumoniae GN_106, PmxR: 4 µg/mL (≈ 3.63 µM)
[3]
  MIC K. pneumoniae ATCC 700603, MDR: 4 µg/mL (≈ 3.63 µM)
[4]
  MIC E. coli ATCC 25922: 2 µg/mL (≈ 1.81 µM)
[5]
  MIC P. aeruginosa GN_105, PmxR: 1 µg/mL (≈ 0.906 µM)
[6]
  MIC K. pneumoniae ATCC 13883: 4 µg/mL (≈ 3.63 µM)
[7]
  MIC K. pneumoniae GN_102 PmxR: 4 µg/mL (≈ 3.63 µM)
[8]
  MIC A. baumannii ATCC 19606: 8 µg/mL (≈ 7.25 µM)
[9]
  MIC S. aureus ATCC 25923, MSSA: 4 µg/mL (≈ 3.63 µM)
[10]
  MIC K. pneumoniae ATCC BAA-2146, NDM-1 pos: 4 µg/mL (≈ 3.63 µM)
[11]
  MIC P. aeruginosa GN_043, PmxR: 2 µg/mL (≈ 1.81 µM)
[12]
  MIC A. baumannii GN_093 PmxR: 8 µg/mL (≈ 7.25 µM)
[13]; strain F89
  MIC N. gonorrhoeae F89: 1.04 µg/mL (≈ 0.943 µM)
[13]
  MIC N. gonorrhoeae FA19 ATCC BAA-1838: 0.39 µg/mL (≈ 0.353 µM)
[13]; strain FA1090 A25 ATCC 700825
  MIC N. gonorrhoeae FA1090 A25 ATCC 700825: 0.91 µg/mL (≈ 0.825 µM)
[13]; strain H041
  MIC N. gonorrhoeae H041: 1.04 µg/mL (≈ 0.943 µM)
